Data on two molecules can be found in patent US20260209228A1 (Elanco Tiergesundheit AG, priority 2018, published 2026).

For assay [1], the system named is D. immitis microfilariae. The assay can be described thus: Dog heart worm microfilariae motility inhibition (Example A). To be noted: read-out: EC50 (motility inhibition). In kind it is cell-based.
In assay [2] the test system is L. sigmodontis. The assay can be described thus: L.s. model (Example E). To be noted: mice infected s.c. with L. sigmodontis larvae; oral gavage, dose between 1×3 mg/kg and 5×32 mg/kg; necropsy 5 weeks after infection.
Description: Mice, injected subcutaneously with infective L. sigmodontis larvae, were subsequently treated with the test article formulated in eg DMSO/PEG 2/1, by oral gavage at a dose in a range between 1×3 mg/kg up to 5×32 mg/kg (one dose per day for 5 consecutive days). At necropsy 5 weeks after infection, efficacy is calculated by counting developed larvae vs. untreated animals using Abbot's formula.
Assay [3] relates to H. contortus (H.c.) larvae. Kind of assay: Ruminant gastrointestinal H. contortus larvae motility inhibition (Example B). To be noted: Haemonchus contortus, read-out: EC50 (motility inhibition).
Description: H.c. eggs isolated from lamb fecal matter are allowed to hatch overnight. Test compounds are diluted in DMSO and added to a 96-well plate containing appropriate media. H.c. larvae are added to each well and plates are incubated for the desired time(s). Motility is assessed using an LCD camera imaging system. Percent motility inhibition values are generated relative to the average of the DMSO-only wells.
The subject of assay [4] is H. contortus. The assay can be described thus: Gastro intestinal nematodes jird model, H. contortus only (Example C). To be noted: jirds; H. contortus from stomach; oral, Day 6 after infection, dose between 1×3 mg/kg and 1×32 mg/kg; necropsy three days after treatment.
Description: Jirds (Meriones unguiculatus), are artificially infected by gavage with third instar larvae each of T. colubriformis and H. contortus. Then treated orally with the test compound formulated in eg DMSO/PEG 2/1, on Day 6 after infection at a dose in a range between 1×3 mg/kg up to 1×32 mg/kg. Three days after treatment, gerbils are euthanized and dissected to recover H. contortus from stomach and T. colubriformis from the small intestine. Efficacy is expressed as a % reduction in worm numbers in comparison with a placebo treated group, using the Abbot's formula.

The term EC50 denotes the concentration needed to bring the measured effect to its halfway point. Turning to `CN(C)c1c(C(=O)N[C@H]2CCOc3ccccc32)cnc2c(-n3ccc4cc(Cl)ccc43)nccc12` [Example 1.8], the figures for the EC50 in assay [1] and in assay [3] were below 0.1 µg/mL and below 1 µg/mL, respectively. Further, the “efficacy (developed larvae vs. untreated animals, Abbot's formula)” value in assay [2] was above 70%.

In the case of `CN(C)c1c(C(=O)N[C@H]2CCOc3ccccc32)cnc2c(-c3cc(F)cc(F)c3F)nccc12` [Example 1.50, N-[(4S)-chroman-4-yl]-4-(dimethylamino)-8-(2,3,5-trifluorophenyl)-1,7-naphthyridine-3-carboxamide], the “efficacy against He (% reduction in worm numbers vs placebo treated group, Abbot's formula)” value in assay [4] is reported as above 90%. The EC50 in assay [1] is below 0.1 µg/mL; in assay [3], below 1 µg/mL.
